PubChem BioAssay (NCI)
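Protocol summary: plate cells (96-well), add compound at 5 concentrations, incubate 48 h, interpolate endpoints linearly. The concentration for 50% growth inhibition is given as GI50. At the TGI there is no net growth.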

Legend:
Experiment in all cases: DTP human tumour cell line panel, 48 h
[1] = tested on: SK-MEL-2 melanoma
[2] = tested on: HCT-15 colon
[3] = tested on: NCI/ADR-RES ovarian
[4] = tested on: NCI-H460 lung
[5] = tested on: CAKI-1 renal
[6] = tested on: CCRF-CEM leukemia
[7] = tested on: HCC-2998 colon
[8] = tested on: UACC-62 melanoma
[9] = tested on: HL-60(TB) leukemia
[10] = tested on: HCT-116 colon
[11] = tested on: LOX IMVI melanoma
[12] = tested on: BT-549 breast
[13] = tested on: M14 melanoma
[14] = tested on: HT29 colon
[15] = tested on: SF-539 CNS
[16] = tested on: RXF 393 renal
[17] = tested on: A498 renal
[18] = tested on: SK-MEL-28 melanoma
[19] = tested on: NCI-H226 lung
[20] = tested on: UACC-257 melanoma
[21] = tested on: OVCAR-4 ovarian
[22] = tested on: NCI-H522 lung
[23] = tested on: MALME-3M melanoma
[24] = tested on: OVCAR-3 ovarian
[25] = tested on: OVCAR-5 ovarian
[26] = tested on: TK-10 renal
[27] = tested on: MDA-MB-231 breast
[28] = tested on: SK-MEL-5 melanoma
[29] = tested on: HOP-92 NSCLC
[30] = tested on: SF-268 CNS
[31] = tested on: ACHN renal
[32] = tested on: MDA-MB-435
[33] = tested on: EKVX NSCLC
[34] = tested on: KM12 colon
[35] = tested on: 786-0 renal
[36] = tested on: A549 NSCLC
[37] = tested on: OVCAR-8 ovarian
[38] = tested on: IGROV1 ovarian
[39] = tested on: SNB-19 CNS
[40] = tested on: SN12C renal
[41] = tested on: NCI-H23 lung
[42] = tested on: HS 578T breast
[43] = tested on: U251 CNS
[44] = tested on: SR leukemia
[45] = tested on: HOP-62 NSCLC
[46] = tested on: UO-31 renal
[47] = tested on: K-562 leukemia
[48] = tested on: T-47D breast
[49] = tested on: MOLT-4 leukemia
[50] = tested on: DU-145 prostate
[51] = tested on: SK-OV-3 ovarian
[52] = tested on: RPMI-8226 leukemia
[53] = tested on: COLO 205 colon
[54] = tested on: SF-295 CNS
[55] = tested on: SW-620 colon
[56] = tested on: MCF7 breast
[57] = tested on: PC-3 prostate
[58] = tested on: SNB-75 CNS

`CC(C)C(=O)Nc1ccc(-c2nc(-c3cccc(O)c3)c(-c3ccnc(Br)c3)[nH]2)cc1` showed a GI50 [1] of 1640 nM, a TGI [1] of 9810 nM and a GI50 [2] of 1260 nM. It also gave a TGI [2] of 9760 nM, a GI50 [3] of 18000 nM and a TGI [3] greater than 100000 nM. It also gave a GI50 [4] of 1450 nM, a TGI [4] of 9010 nM and a GI50 [5] of 932 nM. The TGI [5] was 9120 nM, the GI50 [6] was 653 nM and the TGI [6] was greater than 100000 nM. It also gave a GI50 [7] of 1380 nM, a TGI [7] of 6710 nM and a GI50 [8] of 758 nM. The TGI [8] was 5370 nM, the GI50 [9] was 768 nM and the TGI [9] was 2740 nM. For the same compound, the GI50 [10] was 905 nM, the TGI [10] was 7680 nM and the GI50 [11] was 404 nM. It also gave a TGI [11] of 5710 nM, a GI50 [12] of 1090 nM and a TGI [12] of 7250 nM. It also gave a GI50 [13] of 764 nM, a TGI [13] of 8130 nM and a GI50 [14] of 1400 nM. For the same compound, the TGI [14] was greater than 60100 nM, the GI50 [15] was 685 nM and the TGI [15] was 2890 nM. For the same compound, the GI50 [16] was 370 nM, the TGI [16] was 1320 nM and the GI50 [17] was 957 nM. It also gave a TGI [17] of 5550 nM, a GI50 [18] of 1750 nM and a TGI [18] of 23500 nM. It also gave a GI50 [19] of 1780 nM, a TGI [19] of 8950 nM and a GI50 [20] of 3470 nM. For the same compound, the TGI [20] was 24200 nM, the GI50 [21] was 2850 nM and the TGI [21] was 27700 nM. It also gave a GI50 [22] of 1240 nM, a TGI [22] of 9030 nM and a GI50 [23] of 919 nM. For the same compound, the TGI [23] was 4900 nM, the GI50 [24] was 1090 nM and the TGI [24] was 6600 nM. It also gave a GI50 [25] of 2360 nM, a TGI [25] of 59100 nM and a GI50 [26] of 5880 nM. For the same compound, the TGI [26] was 36800 nM, the GI50 [27] was 1610 nM and the TGI [27] was 36300 nM. It also gave a GI50 [28] of 1100 nM, a TGI [28] of 3240 nM and a GI50 [29] of 2170 nM. The TGI [29] was 7270 nM, the GI50 [30] was 2830 nM and the TGI [30] was 40000 nM. It also gave a GI50 [31] of 1700 nM, a TGI [31] of 26600 nM and a GI50 [32] of 4240 nM. It also gave a TGI [32] of 20600 nM, a GI50 [33] of 1840 nM and a TGI [33] of 25600 nM. For the same compound, the GI50 [34] was 1290 nM, the TGI [34] was 21700 nM and the GI50 [35] was 718 nM. The TGI [35] was 7630 nM, the GI50 [36] was 1640 nM and the TGI [36] was 23600 nM. The GI50 [37] was 1280 nM, the TGI [37] was 18600 nM and the GI50 [38] was 962 nM. For the same compound, the TGI [38] was 5830 nM, the GI50 [39] was 1470 nM and the TGI [39] was 61200 nM. For the same compound, the GI50 [40] was 1490 nM, the TGI [40] was 34800 nM and the GI50 [41] was 1190 nM. It also gave a TGI [41] of 12900 nM, a GI50 [42] of 592 nM and a TGI [42] of 2320 nM. It also gave a GI50 [43] of 1100 nM, a TGI [43] of 47900 nM and a GI50 [44] of 1190 nM. The TGI [44] was greater than 100000 nM, the GI50 [45] was 1820 nM and the TGI [45] was 35200 nM. For the same compound, the GI50 [46] was 1040 nM, the TGI [46] was 4590 nM and the GI50 [47] was 601 nM. The TGI [47] was greater than 100000 nM, the GI50 [48] was 1090 nM and the TGI [48] was 9590 nM. For the same compound, the GI50 [49] was 835 nM, the TGI [49] was 7980 nM and the GI50 [50] was 2540 nM. For the same compound, the TGI [50] was 41300 nM, the GI50 [51] was 1890 nM and the TGI [51] was 10600 nM. It also gave a GI50 [52] of 830 nM, a TGI [52] of 2430 nM and a GI50 [53] of 1470 nM. It also gave a TGI [53] of 6940 nM, a GI50 [54] of 204 nM and a TGI [54] of 457 nM. For the same compound, the GI50 [55] was 1400 nM, the TGI [55] was 16200 nM and the GI50 [56] was 566 nM. For the same compound, the TGI [56] was 4510 nM, the GI50 [57] was 877 nM and the TGI [57] was 8210 nM. The GI50 [58] was 529 nM and the TGI [58] was 2600 nM.
